Laboratory results taken from the NIST ThermoML archive (doi:10.1016/j.jct.2017.11.007).
± gives the expanded uncertainty stated by the source.

Test: mn = molality of the nth substance listed, in mol/kg
Details: 74.66 kPa, Liquid; for mass density: Vibrating tube method; for speed of sound: Frequency=3 MHz, Single path-length method

Cc1ccnc([N-]S(=O)(=O)c2ccc(N)cc2)n1.[Na+] + O
Details	mass density, 293.15 K [kg/m3]	mass density, 298.15 K [kg/m3]	mass density, 303.15 K [kg/m3]	mass density, 308.15 K [kg/m3]	speed of sound, 298.15 K [m/s]	speed of sound, 303.15 K [m/s]	speed of sound, 308.15 K [m/s]
m1 = 0.005	998.778 ± 0.11	997.615 ± 0.11	996.212 ± 0.11	994.593 ± 0.11	1497.8 ± 1.2	1510 ± 1.2	1520.6 ± 1.2
m1 = 0.008	999.118 ± 0.11	997.95 ± 0.11	996.544 ± 0.11	994.922 ± 0.11	1498.2 ± 1.2	1510.5 ± 1.2	1521.1 ± 1.2
m1 = 0.01	999.342 ± 0.11	998.172 ± 0.11	996.764 ± 0.11	995.14 ± 0.11	1498.5 ± 1.2	1510.8 ± 1.2	1521.4 ± 1.2
m1 = 0.01486	999.886 ± 0.11	998.708 ± 0.11	997.296 ± 0.11	995.663 ± 0.11	1499.3 ± 1.2	1511.6 ± 1.2	1522.1 ± 1.2
m1 = 0.02002	1000.47 ± 0.11	999.286 ± 0.11	997.863 ± 0.11	996.227 ± 0.11	1500 ± 1.2	1512.3 ± 1.2	1522.8 ± 1.2
m1 = 0.025	1001.03 ± 0.11	999.841 ± 0.11	998.416 ± 0.11	996.774 ± 0.11	1500.9 ± 1.2	1513.1 ± 1.2	1523.5 ± 1.2
m1 = 0.03001	1001.59 ± 0.11	1000.39 ± 0.11	998.961 ± 0.11	997.316 ± 0.11	1501.7 ± 1.2	1513.8 ± 1.2	1524.2 ± 1.2
m1 = 0.035	1002.15 ± 0.11	1000.95 ± 0.11	999.509 ± 0.11	997.858 ± 0.11	1502.5 ± 1.2	1514.6 ± 1.2	1524.9 ± 1.2
m1 = 0.04002	1002.71 ± 0.11	1001.5 ± 0.11	1000.06 ± 0.11	998.402 ± 0.11	1503.3 ± 1.2	1515.3 ± 1.2	1525.7 ± 1.2
m1 = 0.04499	1003.27 ± 0.11	1002.05 ± 0.11	1000.61 ± 0.11	998.941 ± 0.11	1504.1 ± 1.2	1516.1 ± 1.2	1526.3 ± 1.2
m1 = 0.05	1003.84 ± 0.11	1002.61 ± 0.11	1001.16 ± 0.11	999.494 ± 0.11	1504.8 ± 1.2	1516.8 ± 1.2	1527.1 ± 1.2
m1 = 0.05501	1004.4 ± 0.11	1003.17 ± 0.11	1001.71 ± 0.11	1000.03 ± 0.11	1505.7 ± 1.2	1517.6 ± 1.2	1527.8 ± 1.2
m1 = 0.05998	1004.96 ± 0.11	1003.73 ± 0.11	1002.26 ± 0.11	1000.58 ± 0.11	1506.5 ± 1.2	1518.3 ± 1.2	1528.4 ± 1.2
